Results taken from publication PMC4482662, “Engineered Trehalose Permeable to Mammalian Cells” (PLoS ONE, 2015).

Columns and labels:
[1] = tested on: rat hepatocytes; test: Uptake and intracellular deacetylation of acetylated trehalose in cultured rat hepatocytes (trehalase assay kit, total after NaOH hydrolysis); format: in vitro ADME; settings: 30 mM incubation
Source text: Rat hepatocytes were provided by the Cell Resource Center (CRC) at the Center for Engineering in Medicine at Massachusetts General Hospital. Briefly, hepatocytes were obtained from female Lewis rats using a two-step collagenase protocol. Two or three month old rat (Charles River Laboratories, Wilmington, MA) weighing 180–200 g were used as hepatocyte source and were maintained in accordance with National Research Council guidelines. Experimental protocols in practice at CRC for the use of hepatocytes in this study were approved by the subcommittee on Research Animal Care, Massachusetts General Hospital. Using a modification of the two-step collagenase perfusion method, which involved purification of cell suspension by means of centrifugation over Percoll, approximately 200 million hepatocytes per rat liver with 85–95% viability were routinely obtained, as evaluated by Trypan blue exclusion. Hepatocytes were kept on ice and were plated within 1 h of isolation.
For trehalose loading experiments, 6-well plates were treated with 25μg/mL fibronectin for 1 h prior to plating the hepatocytes, at which point the wells were washed with PBS and the hepatocytes were seeded at 1.2–1.3×10^6 cells/well. The cells were allowed 24–48 h to attach and spread in a 10% (v/v) CO2 incubator at 37°C before they were incubated with acetylated variants of trehalose. […]
The cell lysates were analyzed for protein content using a Bradford Commassie assay for cell count approximation. Trehalose content of cell lysates were measured using a trehalose assay kit following the manufacturer’s protocol. […] This solution was analyzed for total trehalose content against the trehalose controls prepared in a similar fashion, and the concentration was adjusted for the dilution due to addition of NaOH and HCl. To estimate the number of cells, protein content of the cell lysate was assessed using the Pierce^TM Coomassie Plus (Bradford) assay (Life Technologies, Grand Island, NY, USA). […]

[2] = Diffusion-reaction model fitted to the uptake data (membrane permeability and esterase kinetics); format: in vitro ADME, rat; settings: female, Lewis, rat, not told, pH 7.1, read-out: P, membrane permeability
Source text: (§1) We assume a lumped passive diffusion model for (n)-O-Ac-Tre across the cell membrane, the rate of change in the intracellular concentration of variants of (n)-O-Ac-Tre, C n, may be expressed using Fick’s first law: d[Cn]/dt=−PnA/V([Cn*]−[Cn]), (1) where P n is the membrane permeability of (n)-O-Ac-Tre. Parameters A and V are cell surface area available for transport and cell volume, respectively. Cn* is the extracellular concentration of (n)-O-Ac-Tre, which is equal to zero for all n<6. For the intracellular de-acetylation of (n)-O-Ac-Tre to (n-1)-O-Ac-Tre by esterase activity, we assume enzymatic reaction kinetics as the following: (n)-O-Ac-Tre+E→knf←knr[(n)-O-Ac-Tre+E]→kncat(n-1)-O-Ac-Tre+E where knf,knr and kncat are the kinetic reaction constants for (n)-O-Ac-Tre variants ranging from 6 to 0. We may assume that the process of de-acetylation of 6-O-Ac-Tre is a series of parallel first order enzymatic reactions competing for enzyme molecules (Fig 2).
(§2) Based on the proposed reaction model, the rate of change in the concentration of (n)-O-Ac-Tre ([C n]) and the intermediate ([C n E]) can be expressed as: d[Cn]/dt=−knf[Cn][En]+knr[CnE]+kn+1cat[Cn+1E]−PnA/V([Cn]−[Cn*]) (2) d[CnE]/dt=knf[Cn][En]−knr[CnE]−kncat[CnE] (3)
(§3) In the above set of equations, [E n] is the fraction of the free enzyme that would interact with [C n]. Assuming quasi-steady-state condition, the left-hand-side of Eq (3) is zero. […] [CnE]=knf[Cn][En]/(knr+kncat) (4)
(§4) We may assume that the probablity of the free enzyme interaction with variants of 6-O-Ac-Tre is directly proportional to respective mole fractions, x n: [En]=[E][Cn]/∑n[Cn]=[E]xn (5) where [E] is the concentration of the free enzyme, which can also be expressed as [E] = [E 0]−∑[C n E]. By replacing Eq (5) in Eq (4), summation over n, and rearranging, we get: [E]=[E0]/1+∑([Cn][xn]/Knm) (6) where Knm=knr+kncat/knf is equivalent of the Michaelis-Menten constant for the enzymatic break-down of (n)-O-Ac-Tre variant. After substituting Eq (6) and Eq (4) in Eq (2) and rearranging, we can propose the rate of change in the concentration of (n)-O-Ac-Tre as the following: d[Cn]/dt=−Vnmax[Cn]xn/Knm(1+∑([Cn][xn]/Knm))+Vn+1max[Cn+1]xn+1/Kn+1m(1+∑([Cn][xn]/Knm))+PnA/V([Cn*]−[Cn]) (7) where Vnmax=kncat[E0] . For trehalose and 6-O-Ac-Tre, the first and second terms on the rights hand side of […] are omitted, respectively. Eq (7) is the general form of the Michaelis-Menten formulation of a multi-step enzymatic reaction for this specific case.
(§5) The permeability coefficient P n, and the coefficients Vnmax and K n in the above list of equations are unknown since no data is available in the literature on these novel molecules to be used in the model. Therefore, the values of these parameters were obtained by fitting the model to the data using a custom-written code in MATLAB (The MathWorks, Natick, MA, USA).
(§6) The proposed diffusion-reaction model in the Methods section allows calculating the permeability coefficients for 6-O-Ac-Tre by fitting the model to the experimental results for 6-O-Ac-Tre. First, we made a few simplifying assumptions. […] We also assumed that the enzymatic kinetics of the de-acetylation process were similar for all the steps of hydrolysis of (n)-O-Ac-Tre to (n-1)-O-Ac-Tre. Therefore, Knm=K^m and Vnmax=V^max for n≤6.
(§7) The model was fit to 3 separate data sets obtained from incubation of cells with 5, 15 and 30 mM 6-O-Ac-Tre, each obtained consisting out of total trehalose and total (n)-O-Ac-Tre variants concentration data (Fig 4, also see S1 Fig). The model was fit to the data up to 9 h incubation. The results are plotted in Fig 4. Using only 3 fitting parameters, the model fit all the 6 data sets very closely with nonlinear regression coefficient R^2 values >0.92. By increasing the incubation concentration from 5 to 30 mM, the value of permeability increased from 2.2×10^−9 to 8.0×10^−9 m s^-1 resulting in an average of 5.0±3.4×10^−9 m s^-1.

[3] = tested on: rat hepatocytes; test: as above; format: in vitro ADME
Source text: as §1, §2, §3, §4, §5, §6, §7

[4] = tested on: rat hepatocytes; test: MTT cell viability assay after loading; format: cell-based; settings: 48 h after loading with 30 mM
Experimental: To evaluate cell viability after incubation with acetylated trehalose compared to control group, […] 0.5 mg/ml. The cells were incubated with the MTT reagent for 2 hrs. At the end of incubation, the MTT reagent was removed and the cells were incubated with DMSO for 10 min to dissolve all crystallized formazan. Then, the concentration of formazan was assayed by reading the absorption values of the DMSO solution in a spectrophotometric plate reader at 560 nm.

[5] = tested on: rat hepatocytes; test: Hepatocyte albumin secretion ELISA, 14-day follow-up after loading; format: cell-based; design: dose or concentration left out as unconfirmed
Experimental: The hepatocytes were seeded at 0.6×10^6 cell/well on the collagen gel in 12-well plates. Collagen gel was formed by the addition of 200 μL of collagen solution to each well and incubation for 20 min at 37°C. The cells were allowed to attach and spread at least 24 h before the experiments. […] After the collagen solution solidified, 0.5 mL of medium was added per well and the plate was incubated at 10% CO2 and 37°C. Every 24 h for 14 days, the medium from each well was separately collected and 0.5 mL fresh medium was added to each well. The collected samples were stored at -80°C freezer until analyzed.
Albumin secretion was assayed following an ELISA protocol developed in-house. Briefly, 96-well high-binding ELISA plates were coated with 5 μg/well rat albumin in 100 μL PBS and incubated overnight at 4 °C. Coated plates were washed with PBS-Tween (0.05%) at least 3 times and 50 μL of the media or standards were added to wells in the plate. Albumin antibody was diluted 1:10000 in PBS-tween and 50 μL was added to each well and incubated overnight at 4 °C. At the end of incubation, the plates were washed with PBS-0.05% Tween at least 3 times. A substrate solution of o-phenylenediamine dihydro-chloride (OPD, 400 μg/mL) and 4 μM H2O2 was prepared in a citric acid buffer. […] Reaction was stopped by addition of 50 μL 8N sulfuric acid and the difference in absorbance was measured at 490 nm.

[6] = tested on: rat hepatocytes; test: Mitochondrial membrane potential (JC-1, Mito-Tracker Red) after loading; format: cell-based; settings: after 6 h incubation
Experimental: To determine mitochondrial function after incubation with acetylated trehalose, we used JC-1 for membrane potential and Mito-Tracker Red CMRox for imaging following the manufacturers’ protocols. The hepatocytes were seeded in fibronectin-coated plates and were allowed to attach and spread for 24–48 h. Then, the cells were incubated with 30 mM 6-O-Ac-Tre and 25 mM HEPES for 6 h, after which the wells were washed with excess medium and the cells incubated for 24 h before the assay. Immediately upon the start of incubation with staining agents, the plates were placed in the fluorescent plate reader and the fluorescence was read for 30 min at 579/599 nm excitation/emission wavelengths for Mito-Tracker and at 485 nm excitation and 530/590 nm emission wavelengths for the green and red channels respectively of JC-1. For imaging mitochondria, the hepatocytes were cultured on collagen-coated glass cover slips for 48 h, and were stained with Mito-Tracker Red 24 h after the incubation with 6-O-Ac-Tre for 6 h. The control group was prepared without incubation with 6-O-Ac-Tre. The cover slips were then washed with excess PBS and imaged using a Zeiss microscope with fluorescence capability.

[7] = tested on: rat hepatocytes; test: Overall morphology of hepatocytes after loading; format: cell-based; settings: post-loading incubation after 15 and 30 mM for 6 h
Experimental: We next examined the long-term functional activity of hepatocytes after incubation with 6-O-Ac-Tre. The cells were incubated for 14 days following the incubation with 15 and 30 mM 6-O-Ac-Tre for 6 h (Fig 5). During the post-loading incubation, the cells were examined for overall morphology, viability and the albumin secretion. Mitochondrial membrane potential (ΔΨ) was also examined.

[8] = Water solubility; format: physicochemical

CC(=O)OC1C(OC2OC(CO)C(O)C(OC(C)=O)C2OC(C)=O)OC(CO)C(O)C1OC(C)=O (stereo not shown) [4-O-Ac-Tre, trehalose tetraacetate]
enhancement of membrane permeability over regular trehalose [1]: did not observe a significant enhancement of the permeability

CC(=O)OC1C(CO)OC(OC2OC(CO)C(OC(C)=O)C(OC(C)=O)C2OC(C)=O)C(OC(C)=O)C1OC(C)=O (stereo not shown) [6-O-Ac-Tre, trehalose hexaacetate]
uptake compared with trehalose, 2-Act-Tre and 4-Act-Tre [1]: at least one order of magnitude higher
Papp at 9 h ([2]; Average±S.D. over 5, 15, 30 mM): 0.5 ×10⁻⁶ cm/s
Papp at 9 h, 5 mM ([2]; C* 5 mM, fit up to 9 h): 0.22 ×10⁻⁶ cm/s
Papp at 9 h, 15 mM ([2]; C* 15 mM, fit up to 9 h): 0.39 ×10⁻⁶ cm/s
Papp at 9 h, 30 mM ([2]; C* 30 mM, fit up to 9 h): 0.8 ×10⁻⁶ cm/s
K^m of intracellular esterase deacetylation ([3]; Average±S.D. over 5, 15, 30 mM): 0.097 ± 0.006 mM
V^max of intracellular esterase deacetylation ([3]; Average±S.D. over 5, 15, 30 mM): 0.0167 ± 0.01 mM/s
K^m of intracellular esterase deacetylation ([3]; C* 5 mM): 0.09 mM
V^max of intracellular esterase deacetylation ([3]; C* 5 mM): 0.007 mM/s
K^m of intracellular esterase deacetylation ([3]; C* 15 mM): 0.1 mM
V^max of intracellular esterase deacetylation ([3]; C* 15 mM): 0.016 mM/s
K^m of intracellular esterase deacetylation ([3]; C* 30 mM): 0.1 mM
V^max of intracellular esterase deacetylation ([3]; C* 30 mM): 0.027 mM/s
K m ([3]; constant from 5 to 30 mM incubation): ~ 0.1 mM
average conversion rate by esterases ([3]; hydrolysis of acetylated trehalose): 60 ± 36 mM/h
MTT viability versus control [4]: no significant difference
albumin secretion versus control [5]: eventually increased to similar levels as the control group within 10 days
mitochondrial ΔΨ versus control (Mito-Tracker Red, JC-1 ratio) [6]: no significant difference
overall morphology and lipid droplet formation versus control [7]: minimal changes

CC(=O)OCC1OC(OC2OC(COC(C)=O)C(OC(C)=O)C(OC(C)=O)C2OC(C)=O)C(OC(C)=O)C(OC(C)=O)C1OC(C)=O (stereo not shown) [8-O-Ac-Tre]
water solubility [8]: not water soluble

CC(=O)OCC1OC(OC2OC(COC(C)=O)C(O)C(O)C2O)C(O)C(O)C1O (stereo not shown) [trehalose diacetate]
enhancement of membrane permeability over regular trehalose [1]: did not observe a significant enhancement of the permeability
